US12226410B2, “Methods for enhancing cellular clearance of pathological molecules via activation of the cellular protein ykt6” (NORTHWESTERN UNIVERSITY, priority 2019, dated 2025)

Test system: ykt6
Assay: FTI treatment of wild-type mice: ykt6 membrane distribution and SNARE complexes in cortex
Assay type: in vivo
Details: daily i.p. 0.9 mg/kg, 14 days
Procedure: FIGS. 15A, 15B, 15C, 15D, 15E, and 15F. FTI treatment of wild-type mice enhances ykt6 SNARE complexes, lysosomal activity, and reduces a-syn. 15A) Wild-type mice (C57Bl/6) were i.p. injected daily with FTI for 14 days at 0.9 mg/kg and compared to vehicle injected mice. Extracts from the cortex were analyzed for cytosolic (cyt) and membrane (mem) distribution of ykt6 (veh, n=5; FTI, n=6). 15B) Representative gel filtration/western blot analysis of cortical extracts of veh or FTI injected wild-type mice. Inputs are shown on the left. NSE indicates equal column loading. 15C) Quantification of ykt6 and STX5 complexes (ca. 120A) from gel filtration analysis in C (n=4 mice). Fraction 1 corresponds to complexes at 120A, while fractions 7-9 correspond to ykt6 monomers at 22-14 A. 15D) The levels of post ER (endo H resistant) GCase were analyzed by western blot and post ER/ER ratios were quantified from the cortex of FTI treated mice (veh, n=5; FTI, n=6). 15E) GCase activity was assessed in cortical lysates and normalized to total protein (veh, n=4; FTI, n=6). 15F) a-Syn levels were quantified from cytosolic or membrane isolated fractions from the cortex of wild-type FTI treated mice (veh, n=4; FTI, n=6). For all quantifications, values are the mean+/−SEM, *p<0.05.
Separation of lysates into cytosol and membrane fractions. Cell cultures from either a 10 cm dish (SH-SY5Y) or 6 well (iPSn) were scraped in cold PBS and pelleted by centrifugation at 400×g, 5 min, 4° C. The supernatant was discarded and cell pellets were homogenized in 200-400 ul of cold PBS containing protease inhibitor cocktail mix (1 mM phenylmethanesulfonyl fluoride (PMSF), 50 mM NaF, 2 mM Na orthovanadate, and a protease inhibitor cocktail (Roche diagnostics, http://www.roche.com, #11-836-170-001)) using a Teflon homogenizer in a conical glass vessel for 20-40 times, using a motor driven spindle at 4000 rpm (GlasCol, https://glascol.com/homogenizers). […] Fractions were then analyzed by western blot analysis as described below. The samples were not analyzed in a blinded manner. […]

For `C#Cc1cccc(-c2cc(=O)n(C)c3ccc([C@](O)(c4ccc(Cl)cc4)c4cncn4C)cc23)c1` [LNK-754], which “levels of membrane associated ykt6 and STX5” value is on record?
The value was “increase the levels of membrane associated ykt6 and STX5”.

And the sec22b?
Its sec22b is “no change”.

What about the “ykt6 distribution by SEC (monomers vs complexes)” value of the same compound?
The value was “shifted its distribution from monomers into high molecular weight complexes”.
